Assay results: ChEMBL document CHEMBL1201862, “PubChem BioAssay data set” (2004)
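These data come from cells grown in 96-well plates and exposed to compound for 48 hours at five concentrations. GI50 is the concentration that inhibits growth by half.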 Active and inactive are the calls of the source. Cut-off read from the data, not from the text of the source: active = GI50 up to about 1.1 µM and inactive = higher.

Key:
Test in all cases: inhibition of tumour cell growth, NCI panel, 48 h
U-251 = tested on: U-251
SK-MEL-2 = tested on: SK-MEL-2
NCI-H226 = tested on: NCI-H226
SF-539 = tested on: SF-539
MDA-MB-435 = tested on: MDA-MB-435
A549 = tested on: A549
UO-31 = tested on: UO-31
COLO 205 = tested on: COLO 205
TK-10 = tested on: TK-10
DU-145 = tested on: DU-145
T47D = tested on: T47D
MOLT-4 = tested on: MOLT-4
SNB-75 = tested on: SNB-75
SF-295 = tested on: SF-295
SNB-19 = tested on: SNB-19
UACC-257 = tested on: UACC-257
A498 = tested on: A498
MDA-MB-231 = tested on: MDA-MB-231
MCF7 = tested on: MCF7
HOP-92 = tested on: HOP-92

Measured: GI50

COc1cc(OC)c2c(c1OC)OCC(Cc1ccc(O)cc1)C2=O (configuration not stated)
inactive: U-251 > 25 µM | SK-MEL-2 > 25 µM | NCI-H226 > 25 µM | SF-539 > 25 µM | MDA-MB-435 > 25 µM | A549 > 25 µM | UO-31 > 25 µM | COLO 205 > 25 µM | TK-10 > 25 µM | DU-145 > 25 µM | T47D 8.3 µM | MOLT-4 > 25 µM | SNB-75 > 25 µM | SF-295 > 25 µM | SNB-19 > 25 µM | UACC-257 > 25 µM | A498 > 25 µM | MDA-MB-231 > 25 µM

CC(=O)N(C)CCc1c[nH]c2ccccc12
inactive: U-251 > 100 µM | SK-MEL-2 > 100 µM | NCI-H226 > 100 µM | SF-539 > 100 µM | MDA-MB-435 > 100 µM | A549 > 100 µM | UO-31 > 100 µM | COLO 205 > 100 µM | TK-10 > 100 µM | DU-145 > 100 µM | T47D > 100 µM | MOLT-4 > 100 µM | SNB-75 > 100 µM | SF-295 > 100 µM | SNB-19 > 100 µM | UACC-257 > 100 µM | MCF7 > 100 µM | MDA-MB-231 > 100 µM

COc1ccc(/C=C2\OC(=O)C(Cl)=C2c2ccc(OC)cc2)cc1
inactive: U-251 89.3 µM | SK-MEL-2 > 100 µM | SF-539 > 100 µM | MDA-MB-435 > 100 µM | A549 > 100 µM | UO-31 > 100 µM | COLO 205 > 100 µM | TK-10 84.5 µM | DU-145 > 100 µM | T47D > 100 µM | HOP-92 14 µM | MOLT-4 > 100 µM | SNB-75 > 100 µM | SF-295 > 100 µM | SNB-19 > 100 µM | UACC-257 > 100 µM | A498 > 100 µM | MDA-MB-231 > 100 µM

O=S(=O)(NC(c1ccccc1)(c1cc2ccccc2[nH]1)c1cc2ccccc2n1S(=O)(=O)c1ccccc1)c1ccccc1 (configuration not stated)
inactive: U-251 > 100 µM | SK-MEL-2 28.9 µM | NCI-H226 > 100 µM | MDA-MB-435 > 100 µM | A549 48.3 µM | UO-31 > 100 µM | COLO 205 > 100 µM | TK-10 > 100 µM | DU-145 > 100 µM | T47D > 100 µM | HOP-92 > 100 µM | MOLT-4 > 100 µM | SNB-75 > 100 µM | SF-295 > 100 µM | SNB-19 > 100 µM | UACC-257 > 100 µM | A498 > 100 µM | MDA-MB-231 > 100 µM
